Laboratory results taken from publication PMC9237828, “Chemically Tuning Resveratrol for the Effective Killing of Gram-Positive Pathogens” (Journal of Natural Products, 2022).
Values after ≈ are worked out from the molar mass of the structure shown. Read-outs that look alike come from different tables or passages of the source.

Experiments:
C. tetani CECT4629 = assay: microbe, parasite or virus in culture; type: cell-based
S.aureus LMG15975 = assay: microbe, parasite or virus in culture; type: cell-based, Staphylococcus aureus
[1] = system: B. cereus ATCC 10987, E. faecalis V583, E. faecium LMG 16003, and S. aureus LMG 8224; type: cell-based; settings: 2-fold the MIC, 24 h, cMHB
C. perfringens CECT376 = assay: microbe, parasite or virus in culture; type: cell-based; settings: for MIC: Clostridium perfringens, CECT376, 24 h, read-out: Minimal Inhibition Concentration (MIC) C. perfringens CECT376
E. faecalis LMG16216 = assay: microbe, parasite or virus in culture; type: cell-based, Enterococcus faecalis
B. cereus ATCC10987 [2] = assay: Effect of the compounds on actively growing bacteria (lysis, OD600); type: cell-based, Bacillus cereus
E. faecium LMG11423 = assay: microbe, parasite or virus in culture; type: cell-based
E. faecium LMG16003 = assay: microbe, parasite or virus in culture; type: cell-based
E. faecalis V583 = assay: microbe, parasite or virus in culture; type: cell-based, Enterococcus faecalis; settings: for MIC: Enterococcus faecalis, V583, 20 h, read-out: Minimal Inhibition Concentration (MIC) E. faecalis V583
C. beijerinckii B504 = assay: MIC test, anaerobes; type: cell-based
Method: (§1) The resveratrol derivatives were serially diluted in cMHB (BD Difco) in 96-well microplates. Plates were then inoculated with the indicator bacteria at a final concentration of 5 × 10^5 CFU/mL and incubated at 37 °C for 20 h. In the case of the anaerobic bacteria (Clostridium and Clostridioides), the test was performed following the recommendation of CLSI for anaerobes[77] but using RCM medium instead of cMHB. The cultures were cultivated inside an anaerobic chamber at 37 °C for 24 h. All the tests were performed in triplicate.

C. ihumii AP5 = assay: MIC test, anaerobes; type: cell-based; settings: 24 h, read-out: Minimal Inhibition Concentration (MIC) C. ihumii AP5
Method: as §1

E. coli LMG8224 = assay: Outer membrane permeabilization test (MIC with or without L-11 peptide); settings: for MIC (μM) L-11 + 4 μM: presence of 4 μM L-11 outer-membrane-perturbing peptide; for MIC: Escherichia coli, LMG8224, read-out: MIC (μM) L-11 + 0 μM
[3] = system: E. faecium LMG16003 and S. aureus LMG82224; assay: Combination with 24 traditional antibiotics, overall outcome; type: cell-based
B. cereus ATCC14579 = assay: microbe, parasite or virus in culture; type: cell-based, Bacillus cereus; settings: for MIC: Bacillus cereus, ATCC14579, 20 h, read-out: Minimal Inhibition Concentration (MIC) B. cereus ATCC14579
S.aureus LMG10147 = assay: microbe, parasite or virus in culture; type: cell-based, Staphylococcus aureus; settings: for MIC: Staphylococcus aureus, LMG10147, 20 h, read-out: Minimal Inhibition Concentration (MIC) S.aureus LMG10147
C. difficile CECT531 = assay: microbe, parasite or virus in culture; type: cell-based, Clostridioides difficile; settings: for MIC: Clostridioides difficile, CECT531, 24 h, read-out: Minimal Inhibition Concentration (MIC) C. difficile CECT531
B. cereus ATCC10987 [4] = assay: microbe, parasite or virus in culture; type: cell-based, Bacillus cereus; settings: for MIC: Bacillus cereus, ATCC10987, 20 h, read-out: Minimal Inhibition Concentration (MIC) B. cereus ATCC10987
C. botulinum CECT551 = assay: microbe, parasite or virus in culture; type: cell-based
S.aureus LMG8224 = assay: microbe, parasite or virus in culture; type: cell-based, Staphylococcus aureus
E. faecalis LMG08222 = assay: microbe, parasite or virus in culture; type: cell-based, Enterococcus faecalis
[5] = system: B. cereus ATCC10987 respiratory chain; assay: Activity of the respiratory chain (resazurin reduction); type: cell-based, Bacillus cereus; settings: dose-related, 125 min
Method: The effect of the resveratrol derivatives on the B. cereus ATCC10987 respiratory chain was measured by the reduction of resazurin to the fluorescent resorufin. The bacteria were cultured in LB medium at 37 °C to an OD600 of 1. Then, the cells were washed three times in cMHB and resuspended in this medium at a final OD600 of 0.2. Resazurin at 100 μg/mL was added to the cells that were distributed in a 96-well plate. […] No treated cells and just MHB medium with resazurin were used as negative controls. All the tests were performed in triplicate.

B. cereus ATCC10987 [6] = assay: Intracellular ATP level quantification (BacTiter-Glo); settings: 32 μM of the compounds (100 μM for CCCP), 30, 60, and 120 min, 37 °C
in vitro = settings: human
B. cereus ATTC10987 = assay: Membrane integrity assay (propidium iodide uptake); type: cell-based, Bacillus cereus; settings: 2×, 1×, and 0.5× the MIC
Method: B. cereus ATTC10987 was grown in LB with shaking at 37 °C for 18 h. After that, the cells were centrifuged and washed in 5 mM HEPES buffer (pH 7.4) plus 5 mM glucose (G-HEPES buffer) three times, adjusted to an OD600 of 0.5 in the same buffer plus 10 μg/mL of propidium iodide (Sigma-Aldrich), and incubated for 10 min at 37 °C. This is a nonfluorescent dye impermeable to the bacterial membranes, but, if the membranes are disturbed, the dye can enter by binding the DNA, providing a strong fluorescent signal. […] The experiment was performed in triplicate.

B. cereus ATCC10987 [7] = assay: Membrane potential assay DiSC3(5); settings: 2×, 1×, and 0.5× the MIC
S. aureus = system: S. aureus; parameters: method as in PMID 29906565; settings: cited from earlier work
Enterococcus strains = assay: Time killing kinetic and minimal bactericidal concentration, Enterococcus; type: cell-based
[8] = system: panel of aerobic and anaerobic Gram-positive bacteria; assay: organism not typed; type: cell-based
[9] = Table 1, 128 to 2 μM, RCM medium, anaerobic, 24 h

## 4′-tert-butyldimethylsilyl resveratrol [compound 17]
C. tetani CECT4629; [9]
  Minimal Inhibition Concentration (MIC) C. tetani CECT4629: 5.3 ± 1.3 µM
S.aureus LMG15975
  Minimal Inhibition Concentration (MIC) S.aureus LMG15975: 8 ± 0 µM
[1]
  bactericidal/bacteriostatic effect: bactericidal
C. perfringens CECT376
  Minimal Inhibition Concentration (MIC) C. perfringens CECT376: 13.3 ± 2.6 µM
E. faecalis LMG16216
  Minimal Inhibition Concentration (MIC) E. faecalis LMG16216: 8 ± 0 µM
B. cereus ATCC10987 [2]; at 2× the MIC
  effect on actively growing cells: bactericidal
B. cereus ATCC10987 [2]; at the MIC concentration
  effect on actively growing cells: bacteriostatic
E. faecium LMG11423
  Minimal Inhibition Concentration (MIC) E. faecium LMG11423: 8 ± 0 µM
E. faecium LMG16003
  Minimal Inhibition Concentration (MIC) E. faecium LMG16003: 8 ± 0 µM
E. faecalis V583
  Minimal Inhibition Concentration (MIC) E. faecalis V583: 8 ± 0 µM
C. beijerinckii B504; [9]
  Minimal Inhibition Concentration (MIC) C. beijerinckii B504: 10.6 ± 2.6 µM
C. ihumii AP5; Table 1, 128 to 2 μM, RCM medium, anaerobic
  MIC: 16 µM
E. coli LMG8224; absence of L-11 outer-membrane-perturbing peptide
  MIC (μM) L-11 + 0 μM: >128 µM
E. coli LMG8224
  MIC (μM) L-11 + 4 μM: 13.3 ± 2.6 µM
[3]
  combined effect with traditional antibiotics: an additive effect was mainly observed
B. cereus ATCC14579
  Minimal Inhibition Concentration (MIC) B. cereus ATCC14579: 4 ± 0 µM
S.aureus LMG10147
  Minimal Inhibition Concentration (MIC) S.aureus LMG10147: 8 ± 0 µM
C. difficile CECT531
  Minimal Inhibition Concentration (MIC) C. difficile CECT531: 21.3 ± 5.3 µM
B. cereus ATCC10987 [4]
  Minimal Inhibition Concentration (MIC) B. cereus ATCC10987: 8 ± 0 µM
MRC5 cells
  IC50: 15.5 ± 1.3 µM
C. botulinum CECT551; [9]
  Minimal Inhibition Concentration (MIC) C. botulinum CECT551: 13.3 ± 2.6 µM
S.aureus LMG8224
  Minimal Inhibition Concentration (MIC) S.aureus LMG8224: 8 ± 0 µM
E. faecalis LMG08222
  Minimal Inhibition Concentration (MIC) E. faecalis LMG08222: 6.6 ± 1.3 µM

## CC(C)[Si](Oc1cc(O)cc(/C=C/c2ccc(O)cc2)c1)(C(C)C)C(C)C [compound 32]
[5]
  effect on the respiratory chain (reduction of resazurin): comparable to or even higher than that of the proton ionophore decoupler of the electron transport chain CCCP
C. tetani CECT4629; Clostridium tetani, CECT4629, 24 h, read-out: Minimal Inhibition Concentration (MIC) C. tetani CECT4629
  MIC: 5.3 ± 1.3 µM (≈ 2.04 µg/mL)
S.aureus LMG15975; Staphylococcus aureus, LMG15975, 20 h, read-out: Minimal Inhibition Concentration (MIC) S.aureus LMG15975
  MIC: 8 µM (≈ 3.08 µg/mL)
[1]
  bactericidal/bacteriostatic effect: bactericidal
B. cereus ATCC10987 [6]
  intracellular ATP levels: reduced dramatically the ATP levels
C. perfringens CECT376
  MIC: 16 µM (≈ 6.15 µg/mL)
E. faecalis LMG16216; Enterococcus faecalis, LMG16216, 20 h, read-out: Minimal Inhibition Concentration (MIC) E. faecalis LMG16216
  MIC: 4 µM (≈ 1.54 µg/mL)
B. cereus ATCC10987 [2]; 2×, 1×, and 0.5× the MIC added at mid exponential phase
  lysis of actively growing cells: most effective derivatives lysing the cells
E. faecium LMG11423; Enterococcus faecium, LMG11423, 20 h, read-out: Minimal Inhibition Concentration (MIC) E. faecium LMG11423
  MIC: 4 µM (≈ 1.54 µg/mL)
E. faecium LMG16003; Enterococcus faecium, LMG16003, 20 h, read-out: Minimal Inhibition Concentration (MIC) E. faecium LMG16003
  MIC: 4 µM (≈ 1.54 µg/mL)
In vitro
  IC50: 1.8 ± 0.1 µM
E. faecalis V583
  MIC: 8 µM (≈ 3.08 µg/mL)
C. beijerinckii B504; Clostridium beijerinckii, B504, 24 h, read-out: Minimal Inhibition Concentration (MIC) C. beijerinckii B504
  MIC: 10.7 ± 2.6 µM (≈ 4.12 µg/mL)
C. ihumii AP5
  MIC: 16 µM (≈ 6.15 µg/mL)
E. coli LMG8224
  MIC: > 128 µM
  MIC (μM) L-11 + 4 μM: 8 ± 0 µM
B. cereus ATCC14579
  MIC: 8 µM (≈ 3.08 µg/mL)
S.aureus LMG10147
  MIC: 8 µM (≈ 3.08 µg/mL)
C. difficile CECT531
  MIC: 16 µM (≈ 6.15 µg/mL)
B. cereus ATCC10987 [4]
  MIC: 8 µM (≈ 3.08 µg/mL)
C. botulinum CECT551; Clostridium botulinum, CECT551, 24 h, read-out: Minimal Inhibition Concentration (MIC) C. botulinum CECT551
  MIC: 8 µM (≈ 3.08 µg/mL)
S.aureus LMG8224; Staphylococcus aureus, LMG8224, 20 h, read-out: Minimal Inhibition Concentration (MIC) S.aureus LMG8224
  MIC: 8 µM (≈ 3.08 µg/mL)
E. faecalis LMG08222; Enterococcus faecalis, LMG08222, 20 h, read-out: Minimal Inhibition Concentration (MIC) E. faecalis LMG08222
  MIC: 4 µM (≈ 1.54 µg/mL)

## Oc1ccc(/C=C/c2cc(O)cc(O)c2)cc1 [compound 1, Resveratrol]
[5]
  effect on the respiratory chain (reduction of resazurin): No effect
B. cereus ATTC10987
  membrane permeabilization (propidium iodide uptake): did not induce any effect on membrane permeability
B. cereus ATCC10987 [6]
  intracellular ATP levels: did not statistically affect the ATP levels
In vitro
  IC50 at 72 h: 56.6 ± 3.2 µM
B. cereus ATCC10987 [7]
  membrane potential change (DiSC3(5)): did not induce any membrane potential change
S. aureus
  concentration 0.5× the MIC at which additive effects with aminoglycosides were obtained: about 560 μM

## CCCCOc1cc(/C=C/c2ccc(OS(=O)(=O)O)cc2)cc(OS(=O)(=O)O)c1 [compound 15, 3-butyl-4′,5-disulfate resveratrol]
C. perfringens CECT376
  MIC: 26.6 ± 5.3 µM (≈ 11.8 µg/mL)
B. cereus ATCC10987 [2]; at 2× the MIC
  effect on actively growing cells: bactericidal
B. cereus ATCC10987 [2]; at the MIC concentration
  effect on actively growing cells: bacteriostatic
In vitro
  IC50: 24.9 ± 4 µM
E. faecalis V583
  MIC: 26.6 ± 5.3 µM (≈ 11.8 µg/mL)
Enterococcus strains; Enterococcus strains, 2-fold the MIC, 24 h, minimal bactericidal concentration test
  bactericidal/bacteriostatic effect: bacteriostatic
Enterococcus strains; Enterococcus, read-out: minimal bactericidal concentration (bacteria grew after the treatment)
  MBC: > 128 µM
E. coli LMG8224
  MIC: > 128 µM
[3]
  combined effect with traditional antibiotics: strong synergistic effects
B. cereus ATCC14579
  MIC: 6.6 ± 1.3 µM (≈ 2.93 µg/mL)
S.aureus LMG10147
  MIC: 8 µM (≈ 3.56 µg/mL)
C. difficile CECT531
  MIC: 64 µM (≈ 28.4 µg/mL)
B. cereus ATCC10987 [4]
  MIC: 8 µM (≈ 3.56 µg/mL)
[8]
  antibacterial activity against the Gram-positive panel: active against all Gram-positive bacterial strains examined
